“Also recorded” adds a separate entry of the source. Values belong to the compound of their own block, whether it stands above or below them.
Tests used:
TGF-β activated hPSCs = assay: IL-6 secretion from TGF-β activated human pancreatic stellate cells (ELISA); format: cell-based; details: 1-100 nM LXA4, 48 h, TGF-β 20 ng/mL
Experimental: HPaSteCs were seeded at 2500 cells/well in a 96-well plate and activated with TGF-p (20 ng/mL) overnight. The next day, hPSCs were treated with 1-100 nM of LXA4 in free and liposomal form. After 48 h of incubation, the supernatant was collected and analysed for IL-6 secretion with ELISA. […] A possible explanation is provided by the schematic in FIG. 11, panel A.

[1] = cited from earlier work
[2] = Subcutaneous KPC tumor model, body weight and blood parameters (safety); format: in vivo, B6129SF1/J mice; details: blood on day 21, 4 IV injections, 3M-052 2 mg/kg, IRIN 40 mg/kg
Experimental: Table 10. A subcutaneous KPC tumor model was established in B6129SF1/J mice. […] Blood was collected from the sacrificed animals on day 21. The biochemical parameters were assayed by UCLA Division of Laboratory Animal Medicine (DLAM) diagnostic laboratory services. These parameters include white blood cell (WBC), alkaline phosphatase (ALP), aspartate aminotransferase (AST), alanine aminotransferase (ALT), blood urea nitrogen (BUN), creatinine, calcium, and phosphorus.
A subcutaneous KPC tumor model was established in immunocompetent B6129SF1/J mice, using protocols approved by the UCLA Animal Research Committee. Briefly, 100 μL of a DMEM/Matrigel (1:1 v/v) suspension, containing 1×10^6 KPC cells, was subcutaneously injected into the right flank of female B6129SF1/J mice, 8-10 weeks old. […] Injections were given every 3-4 days, using the dosing schedule that delivers the equivalent of 2 mg/kg and 40 mg/kg, respectively, for 3M-052 and IRIN. Subcutaneous KPC tumor size and animal weight were monitored every 2 days. The tumor size was calculated according to the formula: (Width^2×Length)/2.
We also collected blood for separating serum after centrifugation at 3500 rpm for 20 min. The following biochemical parameters were assayed by UCLA Division of Laboratory Animal Medicine (DLAM) diagnostic laboratory services: white blood cell (WBC), alkaline phosphatase (ALP), aspartate aminotransferase (AST), alanine aminotransferase (ALT), blood urea nitrogen (BUN), creatinine, calcium, and phosphorus.

KPC cells = assay: In vitro killing of KPC cells, CCK-8 assay; format: cell-based, murine; details: 50-500 μM IRIN, 48 h
Experimental: 20 μL of CCK-8 solution was added to each well and the plates were incubated for an additional 1-2 h in an incubator. The absorbance of each well was assessed at 450 nm in a microplate reader. Cytotoxicity (% dead cells) was calculated using the formula: (ODsample−ODblank)/(ODcontrol−ODblank)×100.

subcutaneous KPC tumor [3] = assay: IHC of T lymphocytes and perforin in KPC tumors (lipo-LXA4-IRIN study); format: in vivo, B6129SF1/J mice; details: normalized over no treatment control
subcutaneous KPC tumor [4] = assay: Subcutaneous KPC tumor model, tumor growth (3M-052/IRIN carriers); details: for Inhibition of tumor growth compared to saline: day 20, p<0.001
Experimental: The schematic in FIG. 6, panel A depicts the treatment outline for conducting the subcutaneous KPC tumor experiment. […] Tumor-bearing mice were randomly divided into 5 groups (n=6 or 7), which received IV administration of the different treatment modalities, every 3-4 days on 4 occasions. […] IRIN was administered at 40 mg/kg while the 3M-052 dose was delivered at 2 mg/kg. FIG. 6, panel B, depicts the average subcutaneous KPC tumor growth kinetics, as determined by tumor volume. Tumor size was measured every 2 days, and tumor volume was calculated by the formula: tumor volume (mm^3)=(length in mm)×(width in mm)^2/2.
KPC cells were subcutaneously injected into the right flank of female B6129SF1/J mice for in vivo experimentation. […] Subcutaneous tumor sizes were monitored every 2 days.

orthotopic KPC-luc tumor = assay: Orthotopic KPC-luc tumor model, efficacy (IVIS bioluminescence, tumor weight, metastasis); format: in vivo, B6129SF1/J mice
Experimental: FIG. 8, panel A, depicts the experimental outline of the study conducted by orthotopic implantation KPC-luc tumor cells in the pancreatic tail of syngeneic mice. In brief, 50 μL of PBS/Matrigel (6:4 v/v), containing 0.8×10^6 KPC-luc cells was orthotopically injected into the tail of the pancreas of female B6129SF1/J mice 8 days before the onset of treatment. […] FIG. 8, panel C depicts the average quantitative tumor bioluminescence in each group at day 21, as calculated by IVIS software. **p<0.01.
Mice were sacrificed on day 21. FIG. 8, panel D, depicts the IVIS imaging performed on the ex vivo explanted tumor tissues and potential metastatic organs on day 21. […] FIG. 8, panel G depicts animal body weights over a time period of 21 days.
50 μL of a DMEM/Matrigel (6:4 v/v) suspension, containing 8×10^5 KPC-luc cells, was injected into the tail of the pancreas in female B6129SF1/J mice by a survival surgery procedure. […] The dose equivalents of 3M-052 and IRIN were 2 mg/kg and 40 mg/kg per dose, respectively. Animal weight was monitored every 2 days.
To perform the bioluminescence imaging of the luciferase-expressing tumors, mice were injected intraperitoneal with 50 mg/kg D-Luciferin on day 7, 15, 18, and 21. Ex vivo IVIS images of tumors and major organs, collected from sacrificed animals, were obtained on day 21. In addition, we also obtained photographs and weighed the harvested tumors, which were subsequently fixed in 10% formalin for the performance of IHC staining.

RAW264.7 macrophages = assay: RAW264.7 macrophage activation (CD80 flow cytometry, IL-12p40 and TNF-α ELISA); format: cell-based, murine; details: RAW264.7, 10 μM, 21 h
Experimental: (§1) Having confirmed effective intracellular delivery of TLR7 activation, the next task was to determine the effect of the 3M-silicasome in the ex vivo activation of macrophages and DCs. These assays were performed in RAW264.7 macrophages and murine bone marrow-derived dendritic cells (BMDCs). RAW264.7 and BMDCs were treated with 10 μM each of R848 (positive control), free 3M-052, or the 3M-silicasome for 21 hours before assessing CD80 expression (FIG. 16, panels C and E). […] We also quantified the release of two key pro-inflammatory cytokines, IL-12p40 and TNF-α by ELISA in the same cell types, using similar stimuli.
RAW264.7 cells (1×10^5 cells/well) were cultured in 48-well plates for 24 h, before the addition of PBS or 10 μM concentrations of R848, free 3M-052 or the 3M-silicasome for a further 21 h. Immature BMDCs (5×10^5 cells/well) were cultured in 24-well plates, receiving the same dose of R848, free 3M-052, and 3M-silicasome for 21 h. […]
(§2) For flow cytometry analysis of surface markers, cells were washed with cell staining buffer, before staining RAW264.7 cells with anti-CD80 or BMDCs with FITC-conjugated anti-CD11c and anti-CD80 on ice, according to the manufacturer's instructions. The assessment of the differentiation and activation markers were evaluated by flow cytometry (LSRFortessa; BD Biosciences), analyzed by FlowJo software.

[5] = Pharmacokinetics of 3M-052 and IRIN in plasma (HPLC); format: in vivo, healthy B6129SF1/J mice; details: single IV, 3M-052 2 mg/kg, IRIN 40 mg/kg
Experimental: Free 3M-052 and IRIN were extracted by methanol and measured by HPLC.
The harvested tumor and organ samples, collected in the drug biodistribution experiment, were weighed and homogenized. The collected plasma, tumor, and organ homogenates were extracted in methanol, using 1:5, 1:4, and 1:3 v/v dilutions, respectively. The extracts were vortexed for 20 s and centrifuged at 13000 rpm for 10 min, following which the drug-containing supernatants were filtrated through 0.22 μm filters to perform HPLC analysis. The HPLC system is operated by a Knauer Smartline Pneumatic Pump, C18 column, K-2600 spectrophotometer, and Gina data acquisition software. The mobile phase consisted of mobile phase A (0.01% trifluoroacetic acid in water) and mobile phase B (0.01% trifluoroacetic acid in methanol) as 70% A and 30% B (v/v). A 20 μL of the sample was injected to measure the 3M-052 and IRIN absorptions at 320 and 360 nm. The 3M-052 and IRIN standard curves were generated over the maximal concentrations of 40 and 100 μg/mL respectively.

[6] = test system: murine bone marrow-derived dendritic cells (BMDCs); assay: BMDC activation (flow cytometry, IL-12p40 and TNF-α ELISA); format: cell-based; details: 10 μM, 21 h
Experimental: as §1
Bone marrow-derived dendritic cells (BMDCs) were prepared according to our established procedure, with a slight modification.^[42] Bone marrow cells flushed from the femur and tibia of B6/129 mice were collected and red blood cells were lysed by incubating in ACK Lysing Buffer. […]
as §2

[7] = test system: LN-resident dendritic cells (LN-DCs); assay: Subcutaneous KPC tumor model, flow cytometry of inguinal lymph node dendritic cells; format: in vivo, B6129SF1/J mice; details: inguinal lymph nodes
Text: Subcutaneous tumor implantation in the rear animal flank allows lymphatic drainage to the regional inguinal lymph nodes (LNs), which were harvested to assess therapeutic impact on LN-resident dendritic cells (LN-DCs). This reasoning is premised on the possibility that LN participation in the cancer immunity cycle may be able to strengthen the ICD response by increasing recruitment of newly-activated cytotoxic T-cells back to the principal tumor site. Following inguinal LN harvesting and cellular release, initial flow cytometry gating selected singlet live cells (FIG. 26). Further gating on the CD11c^+/CD45^+ DC subset was used to quantify CD80 and CD86 expression, representative of the surface receptors on an activated DC subset, participating in T-cell activation. […] We also obtained evidence that the response boosting involves LNDC participation as a key component of the cancer immunity cycle.
Following animal sacrifice, photographs were obtained of the harvested tumors, which were subsequently fixed in 10% formalin for IHC staining by the UCLA Translational Pathology Core Laboratory. Image processing was performed using Aperio ImageScope software (Leica). IHC analysis was performed to assess tumor staining intensity for CD8 and FoxP3. Additionally, we assessed the immune response in the draining inguinal lymph nodes (LNs) harvested from the sacrificed animals. […]

SMILES: CCCCC[C@H](O)/C=C/C=C\C=C\C=C\[C@@H](O)[C@@H](O)CCCC(=O)O [LXA4, lipoxin A4]
IL-6 release (TGF-β activated hPSCs): significantly inhibited IL-6 release in a concentration-dependent manner

SMILES: CC(=O)O[C@@]12CO[C@@H]1C[C@H](O)[C@@]1(C)C(=O)[C@H](O)C3=C(C)[C@@H](OC(=O)[C@H](O)[C@@H](NC(=O)OC(C)(C)C)c4ccccc4)C[C@@](O)([C@@H](OC(=O)c4ccccc4)[C@H]21)C3(C)C [docetaxel]
Ethanol solubility [1]: ~100 mg/mL

SMILES: CCc1c2c(nc3ccc(OC(=O)N4CCC(N5CCCCC5)CC4)cc13)-c1cc3c(c(=O)n1C2)COC(=O)[C@]3(O)CC [free IRIN, Irinotecan]
ALP [2]: 91.0 ± 1.7 U/L
AST [2]: 66.3 ± 22.2 U/L
BUN [2]: 17.0 ± 1.0 mg/dL
Calcium [2]: 8.9 ± 0.1 mg/dL
Creatinine [2]: 0.0 ± 0.1 mg/dL
Phosphorous [2]: 7.4 ± 0.5 mg/dL
WBC [2]: 3.9 ± 0.5 10^3/μL
Cytotoxicity to KPC cells (KPC cells): dose-dependent cytotoxicity, with a steeper decline in viability
Perforin signal (subcutaneous KPC tumor [3]): increase in the perforin levels compared to the no-treatment control
Inhibition of tumor growth compared to saline (subcutaneous KPC tumor [4]): statistically significant compared to the saline control
Tumor bioluminescence intensity (orthotopic KPC-luc tumor; day 21, IV every 3 days x4, compared to saline or free IRIN): little effect on orthotopic tumors
Metastatic spread to surrounding organs (orthotopic KPC-luc tumor; ex vivo IVIS imaging, day 21): same metastatic burden; also recorded: evidence for splenic involvement

SMILES: O=C1c2c(O)ccc(O)c2C(=O)c2c(NCCNCCO)ccc(NCCNCCO)c21 [mitoxantrone]
Water solubility ([1]; drugbank): 89 mg/mL

Clearance from the blood circulation [5]: rapidly cleared
SMILES: CCCCCCCCCCCCCCCCCC(=O)NCCCCOn1c(CCCC)nc2c(N)nc3ccccc3c21 [free 3M-052, Telratolimod]
ALP [2]: 64.3 ± 7.6 U/L
ALT [2]: 32.3 ± 11.9 U/L
AST [2]: 95.0 ± 14.0 U/L
BUN [2]: 16.0 ± 2.0 mg/dL
Calcium [2]: 8.7 ± 0.2 mg/dL
Creatinine [2]: 0.0 ± 0.0 mg/dL
Phosphorous [2]: 7.2 ± 1.3 mg/dL
WBC [2]: 3.5 ± 0.1 10^3/μL
CD80 cell surface expression (RAW264.7 macrophages): significant increase in cell surface expression of a maturation marker
IL-12p40 and TNF-α release (RAW264.7 macrophages; ELISA): higher responses
CD80 cell surface expression [6]: significant increase in cell surface expression of a maturation marker
IL-12p40 and TNF-α release ([6]; ELISA): higher responses
CD80 and CD86 expression in CD11c+/CD45+ population ([7]; 4 rounds of treatment): up-regulated
Percentage of CD45+/CD11c+ LN-DCs ([7]; day 21, compared to saline and free IRIN): increase in the percentage of CD45^+/CD11c^+ LN-DCs
Effect on tumor volume growth (subcutaneous KPC tumor [4]; IV every 3-4 days x4, 3M-052 2 mg/kg, IRIN 40 mg/kg): modest effects
Inhibition of tumor growth compared to saline (subcutaneous KPC tumor [4]): statistically significant compared to the saline control
Inhibition of tumor growth compared between treatments (subcutaneous KPC tumor [4]; tumor volume, comparison among treatment groups): significantly reduced compared to treatment with single-drug or dual-drug silicasomes

From patent publication US20250177303A1, “A DRUG NANOCARRIER SYSTEM TO DELIVER A COMBINATION OF TLR AGONISTS AND/OR A LIPOXIN PLUS IMMUNOGENIC CELL DEATH INDUCING CHEMOTHERAPEUTIC AGENTS FOR CANCER IMMUNOTHERAPY” (The Regents of the University of California, priority 2022, published 2025)
